Patent EP0148075A2, “Anti-PGE specific monoclonal antibodies, their preparation and their biological applications” (INSTITUT PASTEUR, priority 1983, dated 1985)

Legend:
Assay type in all cases: binding, souris
[1] = tested on: anticorps monoclonal anti-PG E2 secrété par les hybridomes 8E57 (CNCM 1-254); test: competition radioimmunoassay (affinity by Scatchard plot, specificity by displacement of tritiated PG E2); conditions: 12 h at 4°C; for quantité qu'il faut pour déplacer 2,5 pg de PG E2 tritiée de sa liaison à l'anticorps: competition with tritiated PG E2
Experimental: (§1) 'L'affinité des anticorps est étudiée en effectuant un essai radio-immunologique dit de compétition; on détermine l'importance relative de la fixation de PG E marquée au tritium et non marquée sur les anticorps monoclonaux à étudier pour des mélanges de ces PG E en quantités données; Pour cela, on fait incuber 12 heures à 4°C des quantités croissantes de PG E non marquée avec une dilution du surnageant de chaque puits dans lequel se développent des clones secréteurs, en présence de 10 pg de la même PG E mais tritiée; on calcule la dilution pour que 50% de la PG E tritiée se fixe sur les anticorps présents; les résultats obtenus sont représentés selon une courbe de Scatchard, d'où l'on déduit, de façon connue, la constante d'association de l'anticorps monoclonal à la PG E qui traduit l'affinité des anticorps pour leur antigène. La méthode de calcul de la constante d'association est décrite notamment dans Ann. N.Y. Acad. Sci.5l, p.660-672 (1949).
(§2) La spécificité des anticorps est étudiée en effectuant le même type d'essai radioimmunologique de compétition lors de la fixation sur l'anticorps monoclonal anti-PG E à étudier, mais la compétition a lieu entre la PG E tritiée correspondant à l'anticorps préparé et d'autres prostaglandines.
(§3) On mesure l'affinité et la spécificité des anti-corps secrétés dans le surnageant, par les méthodes radio-immunologiques de compétition de liaison précédemment décrites.

[2] = tested on: anticorps monoclonal anti-PG E2 secrété par les hybridomes 42-61-48 (CNCM 1-255), type IgG Cb Kapa; test: as above; conditions: 12 h at 4°C; for quantité qu'il faut pour déplacer 2,5 pg de PG E2 tritiée liée à l'anticorps: competition with tritiated PG E2
Experimental: as §1, §2, §3

[3] = biological target: anticorps monoclonal anti-PG E1 de la lignée d'hybridomes 36-F-20 (36F20, CNCM I-403), type IgG 1 Kapa; test: competition radioimmunoassay (affinity, Scatchard plot); conditions: association constant for PG E1; 720 min; read-out: constante d'affinité (converted)
Experimental: as §1

[4] = biological target: anticorps monoclonal anti-PG E2 de la souche 42-61-48.46 (CNCM I-402); test: as above; conditions: association constant for PG E2; 720 min; read-out: constante d'affinité (converted)
Experimental: as §1, §3

[5] = biological target: anticorps monoclonal anti-PG E2 de la souche 38-200.10 (CNCM I-401), type IgGl Kapa; test: as above; conditions: association constant for PG E2; 720 min; read-out: constante d'affinité (converted)
Experimental: as §1, §3

[6] = association constant for PG E2, 10 pg tritiated PG E2

Row | Compound | quantité qu'il faut pour déplacer 2,5 pg de PG E2 tritiée de sa liaison à l'anticorps [1] | quantité qu'il faut pour déplacer 2,5 pg de PG E2 tritiée liée à l'anticorps [2] | Kd [3] | constante d'affinité Ka [1, 6] | constante d'affinité Ka [2, 6] | Kd [4] | Kd [5]
1 | CCCCC[C@H](O)/C=C/[C@H]1[C@H](O)CC(=O)[C@@H]1CC(=O)CCCCC(=O)O [6-céto-PG E1] | 350 pg | 1000 pg | – | – | – | – | –
2 | CCCCC[C@H](O)/C=C/[C@@H]1[C@@H](CCCCCCC(=O)O)[C@@H](O)C[C@H]1O [PG Flalpha] | – | 40 000 pg | – | – | – | – | –
3 | CCCCC[C@H](O)/C=C/C1=C(C/C=C\CCCC(=O)O)C(=O)CC1 [PG B2] | > 10 000 pg | 500 000 pg | – | – | – | – | –
4 | CCCCC[C@H](O)/C=C/[C@H]1C=CC(=O)[C@@H]1C/C=C\CCCC(=O)O [PG A2] | > 500 pg | 50 000 pg | – | – | – | – | –
5 | CCCCC[C@H](O)/C=C/[C@H]1[C@H](O)CC(=O)[C@@H]1CCCCCCC(=O)O [PG E1] | 70 pg | 350 pg | 0.05 nM | – | – | – | –
6 | CCCCC[C@H](O)/C=C/[C@H]1[C@H](O)CC(=O)[C@@H]1C/C=C\CCCC(=O)O [PG E2] | 40 pg | 80 pg | – | 10^10 M^-1 | 5e+09 M⁻¹ | 0.222 nM | 0.11 nM
